Results from article PMC11992225, “Antibacterial compounds against non-growing and intracellular bacteria” (npj Antimicrobials and Resistance, 2025).
Values joined by “and” are separate entries in the source; they are usually repeats but may differ in a detail not shown here. Equal values may be shown once. Read-outs that look alike come from different tables or passages of the source.

Legend:
[1] = test system: non-growing S. aureus DSM2569; test: Dose-dependent killing analysis (CFU spot-plating) of stationary-phase S. aureus; type: cell-based, Staphylococcus aureus; details: for log10(CFU/ml) after treatment / Log10(CFU/ml), Replicate #1 / Log10(CFU/ml), Replicate #2 / Log10(CFU/ml), Replicate #3 / Δlog10(CFU/ml): S. aureus; for log10(CFU/ml) after treatment: individual replicates; for Δlog10(CFU/ml): average killing vs before treatment (9,097)
How it was run: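 Stationary-phase S. aureus DSM2569 was grown and treated for 24 h in 1:4 CA-MHB at pH 7.4. Treated samples were serially diluted 10-fold in PBS and spot-plated on LB agar, which was incubated overnight at 37 °C. Survivors were counted as CFU over three biological replicates.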

[2] = test system: non-growing UPEC CFT073; test: Dose-dependent killing analysis (CFU spot-plating) of stationary-phase UPEC; type: cell-based, Escherichia coli; details: for log10(CFU/ml) after treatment: individual replicates
How it was run: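 Non-growing (stationary-phase) UPEC CFT073 treated with compounds in 96-well format at 200 μl, then 10-fold serially diluted in PBS and 10 μl spots plated on LB agar. Plates incubated overnight at 37 °C; colonies counted at lowest resolvable dilution to give CFU. Three biological replicates.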

[3] = test system: non-growing S. aureus DSM2569; test: Dilution-regrowth assay (OD600, start-growth-time) on stationary-phase S. aureus; type: cell-based, Staphylococcus aureus; details: for Regrowth, OD600 at 6h or 8h after dilution into drug-free medium: average; for EC50: Staphylococcus aureus; for OD600 at 8hr, Mean: after dilution into drug-free medium
How it was run: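 Stationary-phase S. aureus cultures were grown and exposed to compound for 24 h in 1:4 CA-MHB (pH 7.4) at 37 °C in 96-well plates with 200 μl volume. After dilution into drug-free medium, regrowth was tracked in a plate reader at 37 °C with continuous shaking, reading OD600 every 20 min; EC50 came from five-parameter logistic fitting.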

[4] = E. coli in 1:4 CA-MHB (pH 7.4), 0.25 μM
[5] = E. coli in 1:4 CA-MHB (pH 7.4), 0.5 μM
[6] = E. coli in 1:4 CA-MHB (pH 7.4), 1 μM
[7] = E. coli in 1:4 CA-MHB (pH 7.4), 2.5 μM
[8] = E. coli in 1:4 CA-MHB (pH 7.4), 5 μM
[9] = E. coli in 1:4 CA-MHB (pH 7.4), 10 μM
[10] = E. coli in LPM (pH 5.5), 0.25 μM
[11] = E. coli in LPM (pH 5.5), 0.5 μM
[12] = E. coli in LPM (pH 5.5), 2.5 μM

## CC1COc2c(N3CCN(C)CC3)c(F)cc3c(=O)c(C(=O)O)cn1c23 (stereo not shown) [Ofloxacin]
[1]; concentration 0.1
  log10(CFU/ml) after treatment: 9.279 log10(CFU/ml) and 9.041 log10(CFU/ml) and 9.086 log10(CFU/ml)
[1]; concentration 0.5
  log10(CFU/ml) after treatment: 9.301 log10(CFU/ml) and 9.049 log10(CFU/ml) and 8.462 log10(CFU/ml)
[1]; concentration 2.5
  log10(CFU/ml) after treatment: 9.230 log10(CFU/ml) and 9.093 log10(CFU/ml) and 8.740 log10(CFU/ml)
[1]; concentration 10
  log10(CFU/ml) after treatment: 9.447 log10(CFU/ml) and 8.924 log10(CFU/ml) and 8.839 log10(CFU/ml)
[2]; E. coli in 1:4 CA-MHB (pH 7.4), concentration 0.25
  log10(CFU/ml) after treatment: 9.204 log10(CFU/ml) and 8.602 log10(CFU/ml) and 8.778 log10(CFU/ml)
[2]; E. coli in 1:4 CA-MHB (pH 7.4), concentration 0.5
  log10(CFU/ml) after treatment: 9.041 log10(CFU/ml) and 8.301 log10(CFU/ml) and 8.699 log10(CFU/ml)
[2]; E. coli in 1:4 CA-MHB (pH 7.4), concentration 1
  log10(CFU/ml) after treatment: 9.204 log10(CFU/ml) and 8.778 log10(CFU/ml) and 8.602 log10(CFU/ml)
[2]; E. coli in 1:4 CA-MHB (pH 7.4), concentration 2.5
  log10(CFU/ml) after treatment: 9.204 log10(CFU/ml) and 8.845 log10(CFU/ml) and 8.699 log10(CFU/ml)
[2]; E. coli in 1:4 CA-MHB (pH 7.4), concentration 5
  log10(CFU/ml) after treatment: 8.477 log10(CFU/ml) (2×) and 8.301 log10(CFU/ml)
[2]; E. coli in 1:4 CA-MHB (pH 7.4), concentration 10
  log10(CFU/ml) after treatment: 8.544 log10(CFU/ml) and 8.230 log10(CFU/ml) and 8.176 log10(CFU/ml)
[3]; S. aureus, concentration 0.1
  Regrowth, OD600 at 6h or 8h after dilution into drug-free medium: 0.643
[3]; S. aureus, concentration 0.5
  Regrowth, OD600 at 6h or 8h after dilution into drug-free medium: 0.590
[3]; S. aureus, concentration 2.5
  Regrowth, OD600 at 6h or 8h after dilution into drug-free medium: 0.519
[3]; S. aureus, concentration 10
  Regrowth, OD600 at 6h or 8h after dilution into drug-free medium: 0.417
[3]; DSM2569, S. aureus, regrowth delay of non-growing bacteria, 1:4 CA-MHB pH 7.4, 24 h treatment, OD600 8 h after dilution, read-out: EC50
  EC50: 14.3 µM

## Cn1c(COP(=O)(NCCBr)NCCBr)cnc1[N+](=O)[O-] [Evofosfamide]
[1]; 0.1 μM
  Log10(CFU/ml), Replicate #1: 9.580 Log10(CFU/ml)
  Log10(CFU/ml), Replicate #2: 8.996 Log10(CFU/ml)
  Log10(CFU/ml), Replicate #3: 9.049 Log10(CFU/ml)
  Δlog10(CFU/ml): -0.111 log10(CFU/ml)
[1]; 0.5 μM
  Log10(CFU/ml), Replicate #1: 9.362 Log10(CFU/ml)
  Log10(CFU/ml), Replicate #2: 9.017 Log10(CFU/ml)
  Log10(CFU/ml), Replicate #3: 8.881 Log10(CFU/ml)
  Δlog10(CFU/ml): 0.011 log10(CFU/ml)
[1]; 2.5 μM
  Log10(CFU/ml), Replicate #1: 8.863 Log10(CFU/ml)
  Log10(CFU/ml), Replicate #2: 8.724 Log10(CFU/ml)
  Log10(CFU/ml), Replicate #3: 8.663 Log10(CFU/ml)
  Δlog10(CFU/ml): 0.347 log10(CFU/ml)
[1]; 10 μM
  Log10(CFU/ml), Replicate #1: 5.954 Log10(CFU/ml)
  Log10(CFU/ml), Replicate #2: 5.845 Log10(CFU/ml)
  Log10(CFU/ml), Replicate #3: 5.748 Log10(CFU/ml)
  Δlog10(CFU/ml): 3.248 log10(CFU/ml)
[1]; at 10 µM, 24 h treatment
  reduction of non-growing S. aureus: below the limit of detection
[2]; [4]
  Log10(CFU/ml), Replicate #1: 9.398 Log10(CFU/ml)
  Log10(CFU/ml), Replicate #2: 8.477 Log10(CFU/ml)
  Log10(CFU/ml), Replicate #3: 8.954 Log10(CFU/ml)
[2]; E. coli in 1:4 CA-MHB (pH 7.4), 0.25 μM, average killing vs before treatment (8.977)
  Δlog10(CFU/ml): 0.034 log10(CFU/ml)
[2]; [5]
  Log10(CFU/ml), Replicate #1: 9.279 Log10(CFU/ml)
  Log10(CFU/ml), Replicate #2: 9.114 Log10(CFU/ml)
  Log10(CFU/ml), Replicate #3: 8.301 Log10(CFU/ml)
[2]; E. coli in 1:4 CA-MHB (pH 7.4), 0.5 μM, average killing vs before treatment (8.977)
  Δlog10(CFU/ml): 0.079 log10(CFU/ml)
[2]; [6]
  Log10(CFU/ml), Replicate #1: 9.477 Log10(CFU/ml)
  Log10(CFU/ml), Replicate #2: 8.845 Log10(CFU/ml)
  Log10(CFU/ml), Replicate #3: 8.491 Log10(CFU/ml)
[2]; E. coli in 1:4 CA-MHB (pH 7.4), 1 μM, average killing vs before treatment (8.977)
  Δlog10(CFU/ml): 0.039 log10(CFU/ml)
[2]; [7]
  Log10(CFU/ml), Replicate #1: 9.415 Log10(CFU/ml)
  Log10(CFU/ml), Replicate #2: 8.954 Log10(CFU/ml)
  Log10(CFU/ml), Replicate #3: 8.491 Log10(CFU/ml)
[2]; E. coli in 1:4 CA-MHB (pH 7.4), 2.5 μM, average killing vs before treatment (8.977)
  Δlog10(CFU/ml): 0.024 log10(CFU/ml)
[2]; [8]
  Log10(CFU/ml), Replicate #1: 8.778 Log10(CFU/ml)
  Log10(CFU/ml), Replicate #2: 7.845 Log10(CFU/ml)
  Log10(CFU/ml), Replicate #3: 8.301 Log10(CFU/ml)
[2]; E. coli in 1:4 CA-MHB (pH 7.4), 5 μM, average killing vs before treatment (8.977)
  Δlog10(CFU/ml): 0.669 log10(CFU/ml)
[2]; [9]
  Log10(CFU/ml), Replicate #1: 9.000 Log10(CFU/ml)
  Log10(CFU/ml), Replicate #2: 8.000 Log10(CFU/ml)
  Log10(CFU/ml), Replicate #3: 7.778 Log10(CFU/ml)
[2]; E. coli in 1:4 CA-MHB (pH 7.4), 10 μM, average killing vs before treatment (8.977)
  Δlog10(CFU/ml): 0.718 log10(CFU/ml)
[2]; [10]
  Log10(CFU/ml), Replicate #1: 6.477 Log10(CFU/ml)
  Log10(CFU/ml), Replicate #2: 6.568 Log10(CFU/ml)
  Log10(CFU/ml), Replicate #3: 8.176 Log10(CFU/ml)
[2]; E. coli in LPM (pH 5.5), 0.25 μM, average killing vs before treatment (7.350)
  Δlog10(CFU/ml): 0.277 log10(CFU/ml)
[2]; [11]
  Log10(CFU/ml), Replicate #1: 6.602 Log10(CFU/ml)
  Log10(CFU/ml), Replicate #2: 6.903 Log10(CFU/ml)
  Log10(CFU/ml), Replicate #3: 8.230 Log10(CFU/ml)
[2]; E. coli in LPM (pH 5.5), 0.5 μM, average killing vs before treatment (7.350)
  Δlog10(CFU/ml): 0.105 log10(CFU/ml)
[2]; E. coli in LPM (pH 5.5), 1 μM
  Log10(CFU/ml), Replicate #1: 6.279 Log10(CFU/ml)
  Log10(CFU/ml), Replicate #2: 6.845 Log10(CFU/ml)
  Log10(CFU/ml), Replicate #3: 8.000 Log10(CFU/ml)
[2]; E. coli in LPM (pH 5.5), 1 μM, average killing vs before treatment (7.350)
  Δlog10(CFU/ml): 0.309 log10(CFU/ml)
[2]; [12]
  Log10(CFU/ml), Replicate #1: 6.301 Log10(CFU/ml)
  Log10(CFU/ml), Replicate #2: 6.079 Log10(CFU/ml)
  Log10(CFU/ml), Replicate #3: 7.954 Log10(CFU/ml)
[2]; E. coli in LPM (pH 5.5), 2.5 μM, average killing vs before treatment (7.350)
  Δlog10(CFU/ml): 0.572 log10(CFU/ml)
[2]; E. coli in LPM (pH 5.5), 5 μM
  Log10(CFU/ml), Replicate #1: 5.699 Log10(CFU/ml)
  Log10(CFU/ml), Replicate #2: 5.447 Log10(CFU/ml)
  Log10(CFU/ml), Replicate #3: 7.602 Log10(CFU/ml)
[2]; E. coli in LPM (pH 5.5), 5 μM, average killing vs before treatment (7.350)
  Δlog10(CFU/ml): 1.101 log10(CFU/ml)
[2]; E. coli in LPM (pH 5.5), 10 μM
  Log10(CFU/ml), Replicate #1: 5.176 Log10(CFU/ml)
  Log10(CFU/ml), Replicate #2: 4.954 Log10(CFU/ml)
  Log10(CFU/ml), Replicate #3: 7.146 Log10(CFU/ml)
[2]; E. coli in LPM (pH 5.5), 10 μM, average killing vs before treatment (7.350)
  Δlog10(CFU/ml): 1.592 log10(CFU/ml)
[3]; S. aureus, 0.1 μM
  OD600 at 8hr, Mean: 0.802
[3]; S. aureus, 0.5 μM
  OD600 at 8hr, Mean: 0.751
[3]; S. aureus, 2.5 μM
  OD600 at 8hr, Mean: 0.502
[3]; S. aureus, 10 μM
  OD600 at 8hr, Mean: 0.107
[3]; DSM2569, pH 7.4
  EC50: 2.66 µM
